In patent US7863255B2, “Methods of administering antitumor agent comprising deoxycytidine derivative” (Taiho Pharmaceutical Co., Ltd., priority 2008, dated 2011):

Key:
[1] = tested on: patients having a variety of solid cancers; test: Clinical Phase I equivalent test, continuous intravenous infusion for 168 hours once every two weeks; assay type: in vivo, human
Protocol: (§1) The present test was conducted on patients having a variety of solid cancers for which standard treatment was ineffective or no treatment was available (e.g., digestive system cancer, head and neck cancer, breast cancer, and the like). The test is equivalent to the Clinical Phase I Test, which primarily evaluates safety so as to determine a recommended dose (RD) that can be safely administered with no side effect concerns in the Clinical Phase II Test implemented per cancer type. Treatment effect on tumors was also evaluated in the test when possible. In the treatment effect test, the cytoreductive effect was determined based on comprehensive evaluation of target lesions (lesions having a size measurable at a slice width on CT and a larger size) and non-target lesions (all lesions not included in the target lesions), with reference to the RECIST evaluation method (Journal of the National Cancer Institute, 2000, Vol. 92, No. 3, 205-216). […] SD (stable disease) indicates a case where reduction of tumors was not enough to be determined as PR, but insufficient to be determined as PD; and the progression of tumors stopped and no exacerbation was observed.
The frequency of adverse events and treatment effect were studied in a case where a course was repeatedly performed in which the antitumor agent was administered by continuous intravenous infusion in an amount of 3.0 to 4.0 mg CNDAC (free base) per square meter of body surface area for a duration of 168 hours once every two weeks. Tested patients, evaluation methods, and evaluation standards are the same as those in the test in Example 1.

[2] = tested on: human pancreatic cancer line PAN-4; test: Antitumor effect of continuous intravenous infusion in tumor-bearing rats; assay type: in vivo, rat; settings: two-week continuous infusion 4.5 mg/kg/day Days 1 to 14 compared with 24-hour continuous infusion 36 mg/kg/day Day 1
Protocol: (§2) A relation between the antitumor effect and side effect (body weight suppression) was studied in a continuous intravenous infusion of CNDAC administered to tumor-bearing rats having the human pancreatic cancer line PAN-4. FIGS. 3 and 4 indicate the results.
(§3) CNDAC was administered by continuous intravenous infusion (continuously injected under the skin for 24 hours using a subcutaneous implantation constant-speed pump) in an amount of 36 mg/kg/day on Day 1, or 4.5 mg/kg/day on Days 1 to 14. Relative tumor volume was obtained and compared in a CNDAC administered group and a non-administered group (control group) of each administration method.

[3] = tested on: human breast cancer and colon cancer lines; test: Antitumor effect, rapid vs continuous intravenous infusion in tumor-bearing rat models, further lines; assay type: in vivo
[4] = Side effect (body weight suppression) in tumor-bearing rats having PAN-4; assay type: in vivo, rat
Protocol: as §2, §3
Further, body weight reduction in the two-week continuous intravenous infusion group and 24-hour continuous intravenous infusion group was studied.

[5] = tested on: human lung cancer line LX-1; test: Antitumor effect, rapid vs continuous intravenous infusion in tumor-bearing rats; assay type: in vivo, rat; settings: continuous infusion 4.5 mg/kg/day for two weeks compared with rapid intravenous infusion (800 mg/kg/day Days 1, 5, 8, 12 or 20 mg/kg/day Days 1-5 and 8-12)
Protocol: The antitumor effect was studied in rapid intravenous infusion and continuous intravenous infusion of CNDAC in tumor-bearing rat models. FIG. 1 indicates the study results of the antitumor effect in rapid intravenous infusion and continuous intravenous infusion of CNDAC administered to tumor-bearing rats having the human lung cancer line LX-1.
CNDAC (free base) was administered by rapid intravenous infusion (rapidly injected into a caudal vein using a syringe) in an amount of 800 mg/kg/day on Days 1, 5, 8, and 12, or 20 mg/kg/day on Days 1 to 5 and 8 to 12. Alternatively, CNDAC was administered by continuous intravenous infusion (continuously injected under the skin for 24 hours using a subcutaneous implantation constant-speed pump) in an amount of 4.5 mg/kg/day for two weeks. Relative tumor volume (a ratio of tumor volume on Day 1 of administration and that on Day 14 of administration) was obtained in a CNDAC administered group and a non-administered group (control group) of each administration method, and the obtained relative tumor volume was compared.

[6] = tested on: human colon cancer line KM20C; test: Antitumor effect of continuous intravenous infusion of CNDAC and gemcitabine in tumor-bearing rats; assay type: in vivo, rat
Protocol: The antitumor effect was studied in a continuous intravenous infusion of CNDAC and gemcitabine administered to tumor-bearing rats having the human colon cancer line KM20C. FIG. 2 indicates the results.
as §3, with “on Days 1 and 8,” for “on Day 1,”, “14. Alternatively, gemcitabine was administered by rapid intravenous infusion in an amount of 300 mg/kg/day once a week for two weeks (Days 1 and 8), or by continuous intravenous infusion in an amount of 1.0 mg/kg/day for two weeks.” for “14.”, “a drug” for “a CNDAC”

[7] = tested on: human-derived tumor lines; test: Antitumor tests using animal models, rapid intravenous infusion; assay type: in vivo; settings: rapid intravenous infusion for 10 consecutive days, five times a week for two weeks, or once a week for two weeks; majority of lines; regrowth after completion
Text: However, the regrowth of tumors was observed after completion of the administration, and the cytoreductive effect was not necessarily shown. Further, increasing the dosage so as to increase the antitumor effect causes toxicity, including body weight suppression and leucopenia.

[8] = tested on: patients having a variety of solid cancers; test: Clinical Phase I equivalent test, continuous intravenous infusion for 336 hours once every three weeks; assay type: in vivo, human
Protocol: The frequency of adverse events and treatment effect were studied in a case where a course was repeatedly performed in which the antitumor agent was administered to cancer patients by continuous intravenous infusion in an amount of 2.0 to 4.0 mg/m^2 of CNDAC (free base) for a duration of 336 hours once every three weeks.
as §1

[9] = 4.0 mg/m^2, 168 hours once every two weeks
[10] = 3.0 mg/m^2, 336 hours once every three weeks

With `N#C[C@H]1[C@H](O)[C@@H](CO)O[C@H]1n1ccc(N)nc1=O` [CNDAC, 4-amino-1-(2-cyano-2-deoxy-β-D-arabinofuranosyl)-2(1H)-pyrimidinone] the “adverse event requiring interruption of the administration” value ([1]; 3.0 mg/m^2, 168 hours once every two weeks) was “no adverse event was seen that required interruption of the administration”, the “febrile neutropenia of CTCAE Grade 3” value [1, 9] was “one case” and the “neutropenia of Grade 4” value [1, 9] was “one case”. For the same compound, the “efficacy (SD, stable disease), cases” value ([1]; 4.0 mg/m^2, 168 hours once every two weeks, two out of the three cases) was 67%, the “dose limiting toxicity (DLT) observed, cases” value ([1]; 4.0 mg/m^2, 168 hours once every two weeks, two out of three evaluable cases) was 67% and the “antitumor effect (relative tumor volume)” value [2] was “significantly high antitumor effect”. The “antitumor effect of continuous compared with rapid intravenous infusion” value [3] was “The effect was exhibited”, the “body weight reduction at maximum” value ([4]; 24-hour continuous intravenous infusion group, 36 mg/kg/day on Day 1) was 20.4% and the “body weight reduction at maximum” value ([4]; two-week continuous intravenous infusion, 4.5 mg/kg/day on Days 1 to 14) was 4.6%. The “antitumor effect (relative tumor volume)” value [5] was “high antitumor effect”, the “tumor volume after completion of administration” value ([6]; CNDAC continuous intravenous infusion (36 mg/kg/day Days 1 and 8 or 4.5 mg/kg/day Days 1 to 14)) was “significantly reduced even after the administration was completed” and the “antitumor and antiproliferative effects” value [7] was “strong antitumor and antiproliferative effects”. For the same compound, the “adverse event requiring interruption of the administration” value ([8]; 2.0 mg/m^2, 336 hours once every three weeks) was “no adverse event was seen that required interruption of the administration”, the “reduction (tumor) in one SD case” value ([8]; 2.0 mg/m^2, 336 hours once every three weeks, one case) was “about 15%” and the “dose limiting toxicity (DLT)” value [8, 10] was “not observed”. The “neutropenia of Grades 3 and 4” value [8, 10] was “found in the second case each of two courses”, the “efficacy (SD, stable disease), cases” value ([8]; 3.0 mg/m^2, 336 hours once every three weeks, RECIST) was “one out of the three cases” and the “platelet reduction of Grade 4” value ([8]; 4.0 mg/m^2, 336 hours once every three weeks) was “one out of the three cases”. The “febrile neutropenia of CTCAE Grade 3” value ([8]; 4.0 mg/m^2, 336 hours once every three weeks, three cases) was “all cases” and the “dose limiting toxicity (DLT) observed, cases” value ([8]; 4.0 mg/m^2, 336 hours once every three weeks, three out of three cases) was 100%.
For `Nc1ccn([C@@H]2O[C@H](CO)[C@@H](O)C2(F)F)c(=O)n1` [gemcitabine, reference compound], the “tumor volume after completion of administration” value ([6]; gemcitabine continuous intravenous infusion 1.0 mg/kg/day for two weeks) was “not reduced after the administration was completed”.
